Reference: US3973006A, “Peptide enzyme inhibitors of angiotensin I” (E. R. Squibb & Sons, Inc., priority 1975, dated 1976)

How the values were obtained:
[1] = biological target: angiotensin-converting enzyme (Homo sapiens, UniProt P12821); test: Inhibition of angiotensin-converting enzyme (conversion of angiotensin I into angiotensin II), I50 determination; assay type: biochemical; settings: for IC50: 0.3 mM angiotensin I, 100 mM potassium phosphate buffer pH 7.5, 30 mM NaCl, 37°, read-out: I50 (concentration of peptide producing a 50% inhibition of angiotensin-converting enzyme) (converted)
Experimental: For determination of I50 values (concentration of peptide expressed in micrograms/ml. producing a 50% inhibition of angiotensin-converting enzyme), varying concentrations of the peptide of Example 19 are added to 13 × 100 mm. assay tubes containing a final volume of 0.25 ml. containing 100 mM. potassium phosphate buffer, pH 7.5, 30 mM. NaCl, and 0.3 mM. angiotensin I. Enzymatic reactions are initiated by addition of enzyme and incubation is carried out at 37°. The concentration of the peptide of Example 19 of the present invention which inhibits conversion of 50% of angiotensin I into angiotensin II is found to be 7 μg./ml as opposed to an I50 (μg/ml) of 0.9 for the parent peptide Pyr-Trp-Pro-Arg-Pro-Gln-Ile-Pro-Pro.

[2] = test system: angiotensin I induced pressor response; test: Inhibition of angiotensin I induced pressor response in anesthetized rats; assay type: in vivo; settings: intravenous; atropinized anesthetized male rats infused with pentolinium; 0.10 μg/kg angiotensin I

Chain of angiotensin-converting enzyme (P12821 30-1306, species assumed): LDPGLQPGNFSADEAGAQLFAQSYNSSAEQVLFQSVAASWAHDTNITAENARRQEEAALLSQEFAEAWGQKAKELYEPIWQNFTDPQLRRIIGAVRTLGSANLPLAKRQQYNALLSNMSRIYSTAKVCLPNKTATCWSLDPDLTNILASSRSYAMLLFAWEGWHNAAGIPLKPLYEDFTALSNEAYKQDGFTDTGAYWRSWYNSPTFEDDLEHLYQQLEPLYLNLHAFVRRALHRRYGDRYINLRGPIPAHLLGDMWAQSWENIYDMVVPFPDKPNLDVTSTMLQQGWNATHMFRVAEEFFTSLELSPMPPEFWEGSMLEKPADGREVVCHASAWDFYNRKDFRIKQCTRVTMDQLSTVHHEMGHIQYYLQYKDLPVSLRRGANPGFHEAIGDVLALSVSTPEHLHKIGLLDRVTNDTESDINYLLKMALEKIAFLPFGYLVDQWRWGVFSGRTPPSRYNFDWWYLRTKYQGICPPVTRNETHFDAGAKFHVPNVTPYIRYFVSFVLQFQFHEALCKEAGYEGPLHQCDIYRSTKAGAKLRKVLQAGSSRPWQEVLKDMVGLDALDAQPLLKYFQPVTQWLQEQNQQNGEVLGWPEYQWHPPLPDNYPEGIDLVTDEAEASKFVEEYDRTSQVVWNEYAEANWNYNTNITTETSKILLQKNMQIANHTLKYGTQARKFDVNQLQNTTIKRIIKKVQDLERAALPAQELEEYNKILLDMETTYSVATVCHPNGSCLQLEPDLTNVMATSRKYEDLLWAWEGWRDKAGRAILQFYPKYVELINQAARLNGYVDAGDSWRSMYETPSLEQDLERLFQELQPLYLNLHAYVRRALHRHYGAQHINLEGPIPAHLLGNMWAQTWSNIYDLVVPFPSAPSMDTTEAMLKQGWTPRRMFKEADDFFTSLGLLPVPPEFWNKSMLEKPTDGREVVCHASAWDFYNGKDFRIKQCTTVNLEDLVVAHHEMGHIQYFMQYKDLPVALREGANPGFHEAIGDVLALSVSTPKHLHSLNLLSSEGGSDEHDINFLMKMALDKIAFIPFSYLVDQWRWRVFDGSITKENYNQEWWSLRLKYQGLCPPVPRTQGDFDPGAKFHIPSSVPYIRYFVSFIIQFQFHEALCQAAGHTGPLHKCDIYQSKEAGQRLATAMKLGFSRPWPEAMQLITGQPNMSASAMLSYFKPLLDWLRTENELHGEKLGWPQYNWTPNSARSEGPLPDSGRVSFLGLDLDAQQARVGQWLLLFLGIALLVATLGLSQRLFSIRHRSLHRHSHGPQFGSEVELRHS

Structure (SMILES) | IC50 [1] [µM] | in vitro potency in inhibiting conversion of angiotensin I into angiotensin II, compared with parent control peptide ([1]; in vitro) | in vivo activity (degree of inhibition of angiotensin I induced pressor response) [2]
CC[C@H](C)[C@H](NC(=O)[C@H](CCC(N)=O)NC(=O)[C@@H]1CCCN1C(=O)[C@H](CCCNC(=N)N)NC(=O)[C@@H]1CCCN1C(=O)[C@H](Cc1c[nH]c2ccccc12)NC(=O)[C@@H]1CCC(=O)N1)C(=O)N1CCC[C@H]1C(=O)N1CCC[C@H]1C(=O)OC [Example 19, Pyroglutamyl-tryptophyl-prolyl-arginyl-prolyl-glutaminyl-isoleucyl-prolyl-proline, methyl ester] | 6.28 | substantially less potent than the parent control peptide | roughly equivalent to that of the parent Control peptide
CC[C@H](C)[C@H](NC(=O)[C@H](CCC(N)=O)NC(=O)[C@@H]1CCCN1C(=O)[C@H](CCCNC(=N)N)NC(=O)[C@@H]1CCCN1C(=O)[C@H](Cc1c[nH]c2ccccc12)NC(=O)[C@@H]1CCC(=O)N1)C(=O)N1CCC[C@H]1C(=O)N1CCC[C@H]1C(=O)O [Pyr-Trp-Pro-Arg-Pro-Gln-Ile-Pro-Pro, Pyroglutamyl-tryptophyl-prolyl-arginyl-prolyl-glutaminyl-isoleucyl-prolyl-proline, reference compound] | 0.817 | – | –
